Laboratory results published in ChEMBL document CHEMBL1649238, “Natural polymorphisms of human immunodeficiency virus type 1 integrase and inherent susceptibilities to a panel of integrase inhibitors” (2009).

Columns and labels:
Assay type in all cases: functional
[1] = system: Human immunodeficiency virus 1; assay: Antiviral activity against HIV1 F-15 harboring integrase D10E, K42T, A124N, T125A, V126L, M154L, V201I, T206S, N232D, V281S mutant gene infected in human TZM-bl cells assessed as beta-galactosidase expression after 48 hrs by microplate luminometry relative to HIV1 R7/3 expressing wild type integrase enzyme
[2] = system: Human immunodeficiency virus 1; assay: (§1) Antiviral activity against HIV1 A-6 harboring integrase D10E, V72I, A124T, M154I, R199K, V201I, N232D mutant gene infected in human TZM-bl cells assessed as beta-galactosidase expression after 48 hrs by microplate luminometry relative to HIV1 R7/3 expressing wild type integrase enzyme
[3] = system: Human immunodeficiency virus 1; assay: Antiviral activity against HIV1 R-6 harboring integrase D10E, E11D, S17N, A23V, L28I, P30A, V72I, L101I, S119T, T122I, A124T, V201I, N222D, N232D, S230G, D253E, N254G mutant gene infected in human TZM-bl cells assessed as beta-galactosidase expression after 48 hrs by microplate luminometry relative to HIV1 R7/3 expressing wild type integrase enzyme
[4] = system: Human immunodeficiency virus 1; assay: as §1, with “R-31” for “A-6”, “D10E, E11D, V32I, V37I,” for “D10E,”, “L101I, T112I, A124N, T125A, K173R, A205S, Q216H, N222K, S230N,” for “A124T, M154I, R199K, V201I,”
[5] = system: Human immunodeficiency virus 1; assay: as §1, with “N-19” for “A-6”, “E11D, D25E, V31I, I113V, S119G, A124N, V151I,” for “V72I, A124T, M154I, R199K,”
[6] = system: Human immunodeficiency virus 1; assay: Antiviral activity against HIV1 B-27 harboring integrase D10E, R20K, S39C, V72I, A124N, T125M, V201I, N232D mutant gene infected in human TZM-bl cells assessed as beta-galactosidase expression after 48 hrs by microplate luminometry relative to HIV1 R7/3 expressing wild type integrase enzyme
[7] = system: Human immunodeficiency virus 1; assay: Antiviral activity against HIV1 B-28 harboring integrase D10E, R20K, S39C, V72I, A124N, T125V, V201I, N232D mutant gene infected in human TZM-bl cells assessed as beta-galactosidase expression after 48 hrs by microplate luminometry relative to HIV1 R7/3 expressing wild type integrase enzyme
[8] = system: Human immunodeficiency virus 1; assay: Antiviral activity against HIV1 G-8 harboring integrase D10E, L101I, S119T, A124T, M154L, V201I, N232D, S283G mutant gene infected in human TZM-bl cells assessed as beta-galactosidase expression after 48 hrs by microplate luminometry relative to HIV1 R7/3 expressing wild type integrase enzyme
[9] = system: Human immunodeficiency virus 1; assay: Antiviral activity against HIV1 G-4 harboring integrase K7R, D10E, S39C, L74I, K156R, K215N, T218I, N232D, L234I mutant gene infected in human TZM-bl cells assessed as beta-galactosidase expression after 48 hrs by microplate luminometry relative to HIV1 R7/3 expressing wild type integrase enzyme
[10] = system: Human immunodeficiency virus 1; assay: Antiviral activity against HIV1 K-2 harboring integrase D10E, R20K, I113V, A124T, K188R, V201I, T206S, N232D, D278G mutant gene infected in human TZM-bl cells assessed as beta-galactosidase expression after 48 hrs by microplate luminometry relative to HIV1 R7/3 expressing wild type integrase enzyme
[11] = system: Human immunodeficiency virus 1; assay: Antiviral activity against HIV1 harboring integrase T97A mutant infected in human TZM-bl cells assessed as beta-galactosidase expression after 48 hrs by microplate luminometry relative to HIV1 R7/3 expressing wild type integrase enzyme relative to HIV1 R7/3 expressing wild type integrase enzyme
[12] = system: Human immunodeficiency virus 1; assay: Antiviral activity against HIV1 harboring integrase N155H mutant infected in human TZM-bl cells assessed as beta-galactosidase expression after 48 hrs by microplate luminometry relative to HIV1 R7/3 expressing wild type integrase enzyme relative to HIV1 R7/3 expressing wild type integrase enzyme

## CNC(=O)c1cc(F)ccc1CNC(=O)c1nc(N2CCCCS2(=O)=O)c2cccnc2c1O
[1]
  Ratio EC50: 0.656
[2]
  Ratio EC50: 0.5
[3]
  Ratio EC50: 1.067
[4]
  Ratio EC50: 0.995
[5]
  Ratio EC50: 0.456
[6]
  Ratio EC50: 0.627
[7]
  Ratio EC50: 0.767
[8]
  Ratio EC50: 0.425
[9]
  Ratio EC50: 0.565
[10]
  Ratio EC50: 0.448
[11]
  Ratio EC50: 0.865
[12]
  Ratio EC50: 4.295

## O=C(NCc1ccc(F)cc1)c1nc(N2CCCCS2(=O)=O)c2cccnc2c1O
[1]
  Ratio EC50: 0.505
[2]
  Ratio EC50: 0.863
[3]
  Ratio EC50: 1.175
[4]
  Ratio EC50: 1.268
[5]
  Ratio EC50: 1.416
[6]
  Ratio EC50: 1.306
[7]
  Ratio EC50: 0.973
[8]
  Ratio EC50: 0.488
[9]
  Ratio EC50: 1.3
[10]
  Ratio EC50: 0.468
[11]
  Ratio EC50: 6.067
[12]
  Ratio EC50: 12.647

## CN(C)C(=O)C(=O)N(C)c1nc(C(=O)NCc2ccc(F)cc2)c(O)c2ncccc12
[1]
  Ratio EC50: 0.33
[2]
  Ratio EC50: 0.836
[3]
  Ratio EC50: 0.412
[4]
  Ratio EC50: 1.589
[5]
  Ratio EC50: 0.927
[6]
  Ratio EC50: 0.966
[7]
  Ratio EC50: 0.673
[8]
  Ratio EC50: 0.515
[9]
  Ratio EC50: 0.643
[10]
  Ratio EC50: 0.461
[11]
  Ratio EC50: 3.767
[12]
  Ratio EC50: 2.692

## CN(C)C(=O)C(=O)NC(C)(C)c1nc(C(=O)NCc2ccc(F)cc2)c(O)c(=O)n1C
[1]
  Ratio EC50: 0.329
[2]
  Ratio EC50: 0.946
[3]
  Ratio EC50: 0.644
[4]
  Ratio EC50: 1.005
[5]
  Ratio EC50: 0.998
[6]
  Ratio EC50: 0.592
[7]
  Ratio EC50: 0.766
[8]
  Ratio EC50: 0.286
[9]
  Ratio EC50: 0.847
[10]
  Ratio EC50: 0.394
[11]
  Ratio EC50: 2
[12]
  Ratio EC50: 0.78
